Here are results for 31 molecules from US20230192703A1, “Polycyclic amide derivative as CDK9 inhibitor, preparation method therefor and use thereof” (Suzhou AlphaMa Biotechnology Co., Ltd., priority 2020, published 2023).

One experiment deals with T1, CDK9 kinase (Homo sapiens, UniProt P50750).
T1 construct: purchased Millipore 14-685M
Nature of the experiment: Inhibitory effect on the kinase activity of CDK9 in vitro. It counts as biochemical. The conditions noted are these: CDK9 kinase (Millipore), CTD3 substrate polypeptide, Caliper. On the procedure:
The detection of the inhibitory effect of the compounds of the present disclosure on the kinase activity of CDK9 in vitro was determined by the following method:
Compound preparation: The compound was accurately weighed and dissolved in DMSO (Sigma, D2650) to a concentration of 100 um for later use. The compound was diluted to 5-fold of a desired highest concentration, and diluted 4-fold into 6 concentration gradients, allowing the final concentration of the compound in the reaction system to be 100, 25, 6.25, 1.56, 0.39, 0.098 nM. 5 ul was taken to a 384-well plate (Corning, 4512).
Detection: Data was collected by Caliper.
Calculation: The IC50 value was calculated by Graphpad prism 5.0 software according to the concentration of the compound and the corresponding signal value.

Another experiment concerns Mv4-11 cells. Nature of the experiment: Inhibition of the proliferation of Mv4-11 cells (CCK8). It counts as cell-based. The conditions noted are these: Mv4-11 cell proliferation, CCK8 OD450. On the procedure: The inhibition effect of the compounds of the present disclosure on the proliferation of Mv4-11 cells (ATCC:CRL-9591TM) in vitro was determined by the following method:
Cell inoculation: Mv4-11 cells with good growing state in logarithmic growth phase were inoculated into a 96-well plate at 20000 cells per well and 50 uL, and cultured at 37° C. and under 5% CO2 condition for 2-4 h. Administration: The compound was diluted with 1640 medium containing 10% FBS and 1% PS: 0.4 uL of the compound with an initial concentration of 1 mM was placed in a dilution plate, each added with 199.6 uL of the above culture medium, and gradiently diluted 4-fold, so that the final concentration in the added cell was 1000, 250, 62.5, 15.625, 3.91, 0.98, 0.24, 0.06 nM. 50 μL of the medium containing the compound was sequentially added, and it was placed in a 37° C., 5% CO2 cell incubator for 48 hours.
Detection: 10 uL CCK8 (Dojindo, CK 04) solution was added to each well, incubated in 37° C. 5% CO2 cell incubator for 2 hours, and then the OD450 value was read by Synegry H1 (BioTek) multimode microplate reader.
Calculation: The IC50 value was calculated using Graphpad prism 5.0 software according to the concentration of the compound and the corresponding signal value.

The structures appear in SMILES notation.

T1 sequence (P50750 whole entry): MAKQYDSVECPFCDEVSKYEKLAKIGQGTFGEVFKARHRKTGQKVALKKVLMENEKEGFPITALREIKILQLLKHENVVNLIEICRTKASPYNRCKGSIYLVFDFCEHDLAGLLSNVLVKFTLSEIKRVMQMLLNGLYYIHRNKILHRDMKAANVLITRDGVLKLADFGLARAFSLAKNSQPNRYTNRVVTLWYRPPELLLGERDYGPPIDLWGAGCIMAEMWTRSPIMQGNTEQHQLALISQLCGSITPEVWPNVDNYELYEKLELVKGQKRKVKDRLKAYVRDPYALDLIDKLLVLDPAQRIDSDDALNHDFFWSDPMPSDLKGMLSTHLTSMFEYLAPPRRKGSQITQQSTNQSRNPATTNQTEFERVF
T1 sequence (O60563 whole entry partner): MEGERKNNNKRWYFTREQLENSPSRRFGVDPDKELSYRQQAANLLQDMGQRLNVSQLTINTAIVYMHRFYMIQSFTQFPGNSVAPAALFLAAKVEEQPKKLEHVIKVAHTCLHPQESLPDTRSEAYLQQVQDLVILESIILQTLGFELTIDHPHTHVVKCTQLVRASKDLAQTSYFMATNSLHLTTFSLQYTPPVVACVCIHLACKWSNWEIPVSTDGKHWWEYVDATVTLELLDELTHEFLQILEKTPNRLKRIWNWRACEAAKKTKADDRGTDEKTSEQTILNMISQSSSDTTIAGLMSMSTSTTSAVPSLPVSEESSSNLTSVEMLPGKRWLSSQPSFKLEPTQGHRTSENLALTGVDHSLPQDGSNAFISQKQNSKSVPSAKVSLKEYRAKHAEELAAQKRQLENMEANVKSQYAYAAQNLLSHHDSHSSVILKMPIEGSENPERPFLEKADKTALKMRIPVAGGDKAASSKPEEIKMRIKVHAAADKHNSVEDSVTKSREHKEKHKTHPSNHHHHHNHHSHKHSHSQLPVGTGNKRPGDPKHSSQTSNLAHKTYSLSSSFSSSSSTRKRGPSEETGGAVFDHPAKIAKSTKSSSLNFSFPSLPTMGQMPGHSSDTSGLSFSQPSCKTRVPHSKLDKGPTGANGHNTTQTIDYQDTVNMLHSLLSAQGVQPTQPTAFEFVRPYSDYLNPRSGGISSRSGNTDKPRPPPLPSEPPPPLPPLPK

Broadly, the IC50 is the concentration that inhibits the measured activity by half. For `CC(=O)N1C[C@H]2CC(C(=O)Nc3cc(-c4cnn5c4CC(C)(C)C5)c(Cl)cn3)C[C@H]2C1` (single isomer, unassigned) [Compound 4-2], the IC50 against CDK9 kinase turned out to be 2.9 nM; with Mv4-11 cells (Homo sapiens, MV4-11, 48 h) it was 6.8 nM.

Turning to `CC(=O)N1C[C@H]2CC(C(=O)Nc3cc(-c4cc(C(N)=O)n5c4CC(C)(C)C5)c(Cl)cn3)C[C@H]2C1` (single isomer, unassigned) [Compound 8-1], the IC50 on CDK9 kinase was 3.5 nM; in the experiment with Mv4-11 cells (48 hours) it was 7.7 nM.

For the molecule `CC(=O)N1C[C@H]2CC(C(=O)Nc3cc(-c4cc(C(N)=O)n5c4CC(C)(C)C5)c(Cl)cn3)C[C@H]2C1` (single isomer, unassigned) [Compound 8-2], the results for the IC50 against CDK9 kinase and in the experiment with Mv4-11 cells (48 hours) were 3.1 nM and 0.4 nM, respectively.

The molecule `CC(=O)N[C@H]1C[C@@H]2C[C@@H](C(=O)Nc3cc(-c4cc(C#N)n5c4CC(C)(C)C5)c(Cl)cn3)C[C@@H]2C1` (single isomer, unassigned) [Compound 14-1-1] showed an IC50 with Mv4-11 cells (Homo sapiens, MV4-11, 48 h) of 23.9 nM.

Turning to `CC(=O)N[C@@H]1C[C@@H]2C[C@@H](C(=O)Nc3cc(-c4cc(C#N)n5c4CC(C)(C)C5)c(Cl)cn3)C[C@@H]2C1` (single isomer, unassigned) [Compound 14-1-2], the IC50 in the experiment on Mv4-11 cells (Homo sapiens, MV4-11, 48 h) amounted to 11.1 nM.

Take `CC(=O)N[C@H]1C[C@@H]2C[C@H](C(=O)Nc3cc(-c4cc(C#N)n5c4CC(C)(C)C5)c(Cl)cn3)C[C@@H]2C1` (single isomer, unassigned) [Compound 14-2-1]: the IC50 at CDK9 kinase is 4.3 nM; in the experiment on Mv4-11 cells (Homo sapiens, MV4-11, 48 h), 10.6 nM.

As for `CC(=O)N[C@@H]1C[C@@H]2C[C@H](C(=O)Nc3cc(-c4cc(C#N)n5c4CC(C)(C)C5)c(Cl)cn3)C[C@@H]2C1` (single isomer, unassigned) [Compound 14-2-2], the IC50 on CDK9 kinase amounted to 10.4 nM; with Mv4-11 cells (Homo sapiens, MV4-11, 48 h), 44.6 nM.

In the case of `CC(=O)N1CC[C@@]2(CC[C@H](C(=O)Nc3cc(-c4cnn5c4CC(C)(C)C5)c(Cl)cn3)C2)C1` (single isomer, unassigned) [Compound 18-1], the IC50 on CDK9 kinase was found to be 3.2 nM; in the experiment with Mv4-11 cells (Homo sapiens, MV4-11, 48 h), 1.4 nM.

For the molecule `CC(=O)N1CC[C@@]2(CC[C@@H](C(=O)Nc3cc(-c4cnn5c4CC(C)(C)C5)c(Cl)cn3)C2)C1` (single isomer, unassigned) [Compound 19-1], the IC50 at CDK9 kinase was 5.5 nM; with Mv4-11 cells (Homo sapiens, MV4-11, 48 h) it was 12.2 nM.

As to `CC(=O)N1CC[C@]2(CC[C@H](C(=O)Nc3cc(-c4cnn5c4CC(C)(C)C5)c(Cl)cn3)C2)C1` (single isomer, unassigned) [Compound 19-2], in the experiment on Mv4-11 cells (Homo sapiens, MV4-11, 48 h), the IC50 was 84.2 nM.

Take `CC1(C)Cc2c(-c3cc(NC(=O)[C@H]4CCC[C@H](c5cccnc5)C4)ncc3Cl)cnn2C1` (single isomer, unassigned) [Compound 20-1]: the IC50 at CDK9 kinase was 28.6 nM; in the experiment with Mv4-11 cells (Homo sapiens, MV4-11, 48 h) it was 352 nM.

For `CC1(C)Cc2c(-c3cc(NC(=O)[C@@H]4CCC[C@H](c5cccnc5)C4)ncc3Cl)cnn2C1` (single isomer, unassigned) [Compound 20-2], the IC50 was 7 nM at CDK9 kinase and 15 nM in the experiment with Mv4-11 cells (Homo sapiens, MV4-11, 48 h).

Turning to `CC1(C)Cc2c(-c3cc(NC(=O)[C@H]4CCC[C@@H](c5cccnc5)C4)ncc3Cl)cnn2C1` (single isomer, unassigned) [Compound 20-3], the IC50 at CDK9 kinase was above 100 nM; in the experiment on Mv4-11 cells (Homo sapiens, MV4-11, 48 h), above 1000 nM.

Turning to `CC1(C)Cc2c(-c3cc(NC(=O)[C@@H]4CCC[C@@H](c5cccnc5)C4)ncc3Cl)cnn2C1` (single isomer, unassigned) [Compound 20-4], the IC50 was 2.8 nM against CDK9 kinase and 0.5 nM in the experiment on Mv4-11 cells (Homo sapiens, MV4-11, 48 h).

Turning to `CC1(C)Cc2c(-c3cc(NC(=O)[C@H]4CCC[C@H](c5ccncc5)C4)ncc3Cl)cnn2C1` (single isomer, unassigned) [Compound 21-1], half-maximal inhibition in the experiment with Mv4-11 cells (Homo sapiens, MV4-11, 48 h) (IC50) was put at 68.5 nM.

In the experiment on Mv4-11 cells (Homo sapiens, MV4-11, 48 h), `CC1(C)Cc2c(-c3cc(NC(=O)[C@@H]4CCC[C@H](c5ccncc5)C4)ncc3Cl)cnn2C1` (single isomer, unassigned) [Compound 21-2] registered an IC50 of 16.2 nM.

Take `CC1(C)Cc2c(-c3cc(NC(=O)[C@H]4CCC[C@@H](c5ccncc5)C4)ncc3Cl)cnn2C1` (single isomer, unassigned) [Compound 21-3]: the IC50 against CDK9 kinase was determined as 2.8 nM; in the experiment with Mv4-11 cells (Homo sapiens, MV4-11, 48 h), 6.3 nM.

`CC1(C)Cc2c(-c3cc(NC(=O)[C@@H]4CCC[C@@H](c5ccncc5)C4)ncc3Cl)cnn2C1` (single isomer, unassigned) [Compound 21-4] showed an IC50 with Mv4-11 cells (Homo sapiens, MV4-11, 48 h) of 71.9 nM.

As to `Cn1cc([C@@H]2CCC[C@H](C(=O)Nc3cc(-c4cnn5c4CC(C)(C)C5)c(Cl)cn3)C2)cn1` (single isomer, unassigned) [Compound 23-1], the half-maximal inhibitory concentration (IC50) at CDK9 kinase was found to be 3.8 nM; with Mv4-11 cells (Homo sapiens, MV4-11, 48 h) it was 7.9 nM.

For `CC(=O)N[C@H]1C[C@@H]2C[C@@H](C(=O)Nc3cc(-c4cc(C(N)=O)n5c4CC(C)(C)C5)c(Cl)cn3)C[C@@H]2C1` (single isomer, unassigned) [Compound 24-1], the IC50 is 3.8 nM against CDK9 kinase and 5.9 nM in the experiment with Mv4-11 cells (Homo sapiens, MV4-11, 48 h).

Regarding `CNC(=O)C1C[C@@H]2CC(C(=O)Nc3cc(-c4cc(C(N)=O)n5c4CC(C)(C)C5)c(Cl)cn3)C[C@@H]2C1` (single isomer, unassigned) [Compound 26-1], the IC50 amounted to 2.9 nM against CDK9 kinase and 4.1 nM with Mv4-11 cells (Homo sapiens, MV4-11, 48 h).

On to `CNC(=O)C1C[C@@H]2CC(C(=O)Nc3cc(-c4cc(C(N)=O)n5c4CC(C)(C)C5)c(Cl)cn3)C[C@@H]2C1` (single isomer, unassigned) [Compound 26-2], for which the IC50 at CDK9 kinase is 3.5 nM; in the experiment with Mv4-11 cells (48 hours) it was 5.1 nM.

`CC(=O)N[C@@H]1CCC[C@H](C(=O)Nc2cc(-c3cnn4c3CC(C)(C)C4)c(Cl)cn2)C1` [AZD4573, reference compound] came in with an IC50 with Mv4-11 cells (Homo sapiens, MV4-11, 48 h) of 4.2 nM.

On to `CC(=O)N1C[C@H]2C[C@H](C(=O)Nc3cc(-c4cnn5c4CC(C)(C)C5)c(Cl)cn3)C[C@H]2C1` [Compound 4-1, (3aR,5s,6aS)-2-acetyl-N-(5-chloro-4-(5,5-dimethyl-5,6-dihydro-4H-pyrrolo[1,2-b]pyrazol-3-yl)pyridin-2-yl)octahydrocyclopenta[c]pyrrole-5-carboxamide], for which, in the experiment on Mv4-11 cells (Homo sapiens, MV4-11, 48 h), the IC50 was found to be 14.8 nM.

Molecule `CC(=O)N1C[C@H]2C[C@@H](C(=O)Nc3cc(-c4cc(C#N)n5c4CC(C)(C)C5)c(Cl)cn3)C[C@H]2C1` [Compound 7-2, (3aR,5r,6aS)-2-acetyl-N-(5-chloro-4-(5-cyano-2,2-dimethyl-2,3-dihydro-1H-pyrrolizin-7-yl)pyridin-2-yl)octahydrocyclopenta[c]pyrrole-5-carboxamide] returned an IC50 in the experiment on Mv4-11 cells (Homo sapiens, MV4-11, 48 h) of 8.6 nM.

In the experiment with Mv4-11 cells (Homo sapiens, MV4-11, 48 h), `CC(=O)N[C@@H]1CCC[C@H](C(=O)Nc2cc(-c3cc(C#N)n4c3CC(C)(C)C4)c(F)cn2)C1` [Compound 10, (1S,3R)-3-acetamido-N-(4-(5-cyano-2,2-dimethyl-2,3-dihydro-1H-pyrrolizin-7-yl)-5-fluoropyridin-2-yl)cyclohexane-1-carboxamide] came in with an IC50 of 26.9 nM.

In the experiment on Mv4-11 cells (Homo sapiens, MV4-11, 48 h), `CC(=O)N[C@@H]1CCC[C@H](C(=O)Nc2cc(-c3cc(C#N)n4c3CC(C)(C)C4)ccn2)C1` [Compound 11, (1S,3R)-3-acetamido-N-(4-(5-cyano-2,2-dimethyl-2,3-dihydro-1H-pyrrolizin-7-yl)pyridin-2-yl)cyclohexane-1-carboxamide] displayed an IC50 of 2.2 nM.

`CC(=O)N[C@@H]1CCC[C@H](C(=O)Nc2cc(-c3cc(C#N)c4n3CC(C)(C)C4)c(Cl)cn2)C1` [Compound 16, (1S,3R)-3-acetamido-N-(5-chloro-4-(7-cyano-2,2-dimethyl-2,3-dihydro-1H-pyrrolizin-5-yl)pyridin-2-yl)cyclohexane-1-carboxamide]: inhibition at CDK9 kinase was half-maximal at 2.9 nM (IC50).

Take `CC(=O)N[C@@H]1CCC[C@H](C(=O)Nc2cc(-c3cc(C(N)=O)c4n3CC(C)(C)C4)ccn2)C1` [Compound 28, 5-(2-((1S,3R)-3-acetylaminocyclohexane-1-carboxamido)pyridin-4-yl)-2,2-dimethyl-2,3-dihydro-1H-pyrrolizine-7-carboxamide]: it took 36.5 nM to reach half-maximal inhibition with Mv4-11 cells (Homo sapiens, MV4-11, 48 h) (IC50).

Turning to `CC(=O)N[C@@H]1CCC[C@H](C(=O)Nc2cc(-c3cc(C(N)=O)n4c3CC(C)(C)C4)c(F)cn2)C1` [Compound 33, 7-(2-((1S,3R)-3-acetylaminocyclohexane-1-carboxamido)-5-fluoropyridin-4-yl)-2,2-dimethyl-2,3-dihydro-1H-pyrrolizine-5-carboxamide], the IC50 in the experiment with Mv4-11 cells (Homo sapiens, MV4-11, 48 h) was 1.3 nM.

For the molecule `CC(=O)N[C@@H]1C[C@@H]2C[C@H](C(=O)Nc3cc(-c4cc(C(N)=O)n5c4CC(C)(C)C5)c(F)cn3)C[C@@H]2C1` [Compound 34-2, 7-(2-((2s,3aR,5r,6aS)-5-acetylaminooctahydropentalene-2-carboxamido)-5-fluoropyridin-4-yl)-2,2-dimethyl-2,3-dihydro-1H-pyrrolizine-5-carboxamide], the IC50 with Mv4-11 cells (Homo sapiens, MV4-11, 48 h) was 9 nM.
